Publication PMC6115404 (2018)

Experiments:
[1] = test system: wtTel26 (DNA, G4) TTAGGGTTAGGGTTAGGGTTAGGGTT; experiment: 1H NMR titration; conditions: K+ (25 mM K-phosphate, 70 mM KCl); no well-defined complex at higher equivalents
[2] = test system: Tel26 (for FRET) (DNA, G4) AAAGGGTTAGGGTTAGGGTTAGGGAA; experiment: FRET melting; conditions: K+ (60 mM potassium cacodylate); pH 7.4; 400 nM DNA, 1.0 equivalent compound; second Tm (ΔTm 41.5, dimeric complex) at 2-3 equivalents
[3] = test system: F10T (for FRET), double-stranded DNA (DNA, hairpin, hexaethylene glycol (HEG) linker between nucleotides 10 and 11) TATAGCTATATATAGCTATA; experiment: FRET melting; conditions: K+ (60 mM potassium cacodylate); pH 7.4; 400 nM DNA; compound concentration not in text
[4] = test system: Tel26 (DNA, G4) AAAGGGTTAGGGTTAGGGTTAGGGAA; experiment: NMR solution structure; conditions: K+ (25 mM K-phosphate, 70 mM KCl); pH 7.0, 25 °C; bound at 5'-end, slow exchange

## NCCNCCN.NCCNCCN.NCCNCCN.[Pt+2].[Pt+2].[Pt+2].c1cc(-c2ccc(N(c3ccc(-c4ccncc4)cc3)c3ccc(-c4ccncc4)cc3)cc2)ccn1
[1]
  binding: yes
[2]
  ΔTm: 8.4 °C
[3]
  ΔTm: 2.5 °C
[4]
  binding: yes
